Where two headings read alike, the source gives them in different places.
What was measured:
[1] = test system: 10 A. calcoaceticus isolated from human clinical cases; assay: MIC/MBC, human clinical Acinetobacter isolates; format: cell-based; details: 10 A. calcoaceticus human clinical isolates
Excerpt: (§1) Escherichia coli ATCC 25922, E. coli ATCC 11229, P. aeruginosa ATCC 27853, P. aeruginosa PA01, Pseudomonas putida ATCC 17428, P. mirabilis ATCC 43071, K. pneumoniae ATCC 13883, A. baumannii ATCC 19606, and A. baumannii ATCC 12457 were used for preliminary susceptibility testing and combination experiments. S. aureus ATCC 29213 and S. pneumoniae ATCC 49619 were used as internal quality controls. A variety of bacterial organisms from both human and canine infections were investigated in this study (n = 119 isolates in total). Twenty-eight clinical Acinetobacter spp. isolates were obtained from cases of human skin and soft tissue infections, including 18 Acinetobacter baumannii and 10 A. calcoaceticus, kindly provided by a person (Institute of Medical and Veterinary Science, South Australia). […] Ninety-one clinical isolates were obtained from cases of canine otitis externa, including seven methicillin-susceptible S. pseudintermedius (MSSP), 13 multidrug- and methicillin-resistant S. pseudintermedius (MRSP) ([Saputra et al., 2017]), 20 beta-haemolytic Streptococcus spp., 30 P. aeruginosa (10 of them resistant to gentamicin and 21 P. mirabilis isolates). These isolates were obtained from the bacterial collection of the national survey of antimicrobial resistance in animals conducted in Australia. Swab samples from dogs with signs of otitis externa were collected by veterinarians and submitted to government, private or university diagnostic laboratories throughout Australia. After routine bacterial identification and the removal of confidential information, the participating veterinary diagnostic laboratories submitted the bacteria and their clinical information to PC2 Laboratories, Australian Centre for Antimicrobial Resistance Ecology, School of Animal and Veterinary Sciences, University of Adelaide, Roseworthy Campus, Roseworthy, SA, Australia, for further study. Thus, animal ethics approval was not required in this study. These organisms were identified to species level using biochemical testing and MALDI-TOF mass spectrometry (Bruker, Preston, VIC, Australia).
(§2) The MIC for ampicillin or gentamicin against each isolate was determined for each test to serve as an internal quality control. The MICs of isolates were determined by visual reading and using an EnSpire Multimode Plate Reader 2300 atA600nm.
(§3) Briefly, 10 μl aliquots from each duplicate well from the MIC assays (starting from the MIC for each compound) were inoculated onto a sheep blood agar (SBA) plate and incubated at 37°C.

[2] = test system: 18 A. baumannii isolated from human clinical cases; assay: MIC/MBC, human clinical Acinetobacter isolates; format: cell-based; details: 18 A. baumannii human clinical isolates
Excerpt: as §1, §2, §3

[3] = design: method as in Abraham et al., 2016; details: ref Abraham et al., 2016, cited from earlier work
HEK 293 cell line = assay: In vitro cytotoxicity, WST-1; format: cell-based; details: Homo sapiens, HEK293, 10% FBS, read-out: IC50, single agent
Protocol: Cells were maintained in Dulbecco’s modified Eagle’s medium (DMEM) with 10% fetal bovine serum (FBS) and 1% PenStrep (100 U/mL Penicillin and 100 μg/mL Streptomycin) at 37°C with 5% CO2. Cells were serially passaged at ∼80% confluence ∼ every 4 days. Assays were performed in duplicate in 96 well plates seeded with ∼25,000 cells per well. […] Briefly, the antimicrobials were prepared by performing a twofold serial dilution at 100× of tested concentration in DMSO. Subsequently, a 1 μl aliquot of each concentration was transferred to a sterile 96-well plate containing fresh DMEM with either 10% FBS. After mixing four times, the media aliquots with different concentrations of antimicrobial were transferred to each well of the 96-well plate seeded with cells, using wells containing 1–2% DMSO only as control. To determine the effect of FBS on the cytotoxicity of each compound, DMEM with 40% FBS containing different concentrations of antimicrobial was prepared as described above. After 24 h of exposure, WST-1 reagent (Cell Proliferation Assay reagent, Roche) at a concentration of 10% was added to each well. Absorbance at A450 nm on a Multiskan Ascent 354 Spectrophotometer (Labsystems) was measured after 1 h of incubation. The IC50 value was determined for each compound against each cell line via non-linear regression (three parameters) using GraphPad Prism v6 software.

SMILES | MIC range [1] [µg/mL] | MIC ([1]; Acinetobacter calcoaceticus) [µg/mL] | MIC range [2] [µg/mL] | MIC ([2]; Acinetobacter baumannii) [µg/mL] | serum impact on MIC values ([3]; 10% serum) | serum impact on MIC values ([3]; 50% serum) | IC50 (HEK 293 cell line) [mM]
N=C(N/N=C/c1ccc(Cl)cc1)N/N=C/c1ccc(Cl)cc1 [ROB, robenidine] | 1 to 8 | 2 | 8 to 64 | 8 | fourfold increase | no antimicrobial activity | 
O=C(O)CN(CCN(CC(=O)O)CC(=O)O)CC(=O)O [EDTA, ethylenediaminetetraacetic acid] |  |  |  |  |  |  | 3.4
